From patent publication US5430063A, “Phenoxyphenyl derivatives, compositions thereof and methods for their use” (Akzo N.V., priority 1991, dated 1995) come the findings set out here.

Molecules are shown by their SMILES.

The half-life is the time in which the quantity being followed falls by half.

The nature of one data set: biological half-life for sleep-wake behaviour in rats. Conditions: rat, in vivo. The protocol: The biological half-lives of the phenoxyphenyl derivatives were determined for the sleep-wake behaviour in rats and compared with the half-lives of the prior art compounds.
`NCc1ccccc1Sc1ccccc1` [2-(phenylthio)benzenemethanamine, reference compound] gave a half-life of 0.5 h.
Same read-out and setting: then `COc1ccc(Sc2ccccc2CN)cc1` [2-[(4-methoxyphenyl)thio]-benzenemethanamine, reference compound], with under 0.5 h; and `CN(C)Cc1ccccc1Oc1ccc(Cl)cc1.O=C(O)/C=C\C(=O)O` [Example 4, 2-(4-chlorophenoxy)-N,N-dimethylbenzenemethanamine (Z)-2-butenedioate], with 1 h; and `Clc1ccc(Oc2ccccc2C2=NCCN2)cc1Cl.O=C(O)/C=C\C(=O)O` [Example 6a, 2-[2-(3,4-dichlorophenoxy)phenyl]-4,5-dihydro-1H-imidazole (Z)-2-butenedioate], with 1.5 to 2.5 h.

The same data set, now with this note: rat, in vivo; biological half-life, sleep-wake behaviour in rats; read-out: half-life (converted).
Turning to `Cl.NCc1ccccc1Oc1ccc(Cl)cc1` [Example 1, 2-(4-chlorophenoxy)benzenemethanamine hydrochloride], the half-life is 1 to 2.5 h.
Take `Cl.NCc1ccccc1Oc1ccc(Cl)c(Cl)c1` [Example 2, 2-(3,4-dichlorophenoxy)benzenemethanamine hydrochloride]: the half-life is 2.5 h.
On the same count and under the same terms, then `Clc1ccc(Oc2ccccc2C2=NCCN2)cc1.O=C(O)/C=C\C(=O)O` [Example 5, 2-[2-(4-chlorophenoxy)phenyl]-4,5-dihydro-1H-imidazole (Z)-2-butenedioate], with 3 h.
